Data from patent US11524968B2, “Heterocyclic compound as a protein kinase inhibitor” (HK inno.N Corporation, priority 2017, dated 2022).

Target: JAK1 (Homo sapiens (Human), UniProt P23458)
Test: Analysis of JAK1 activity inhibition ability (ADP-Glo Kinase Assay)
Type: biochemical
Details: JAK1 enzyme, ADP-Glo luminescence, ATP 250 uM, IRS-itide substrate, 30° C. 40 minutes; read-out: IC50
Experimental: Test Example 1: Analysis of JAK1 Activity Inhibition Ability of Compound of Formula 1 (ADP-Glo™ Kinase Assay)
A JAK inhibition ability of a compound according to the present invention was identified as follows.
A control material and a test material were prepared for each concentration, in such a way that they were diluted by means of DMSO. At the same time, ATP (250 uM) and JAK substrate (JAK1, IRS-itide 40 ng/mL) were prepared, in such a way that they were diluted by means of kinase buffer (40 mM Tris-HCl pH 7.5, 20 mM MgCl2, 0.5 mg/mL BSA, 50 uM DTT).
A test drug for each concentration, substrate, ATP and JAK enzyme were mixed in an eppendorf tube, and reacted in a 30° C. incubator for 40 minutes.
ADP-Glo™ reagent contained in ADP-Glo™ Kinase Enzyme System (Promega, USA, V9571) was added into each eppendorf tube, and reacted in a 30° C. incubator for 40 minutes. A kinase detection reagent contained in ADP-Go™ Kinase Enzyme System was inserted into the eppendorf tube, then an integration time was set to 1 second by using Wallac Victor 2™, then luminescence was measured, and then JAKs phosphorylation inhibition ability of the test material was analyzed. The concentration of the compound, which causes 50% of the JAK enzyme activity inhibition in comparison With the control group, was determined as IC50 (nM) of an inhibitor, wherein the results thereof are shown in a following table 1.

JAK1, sequence (P23458 whole entry): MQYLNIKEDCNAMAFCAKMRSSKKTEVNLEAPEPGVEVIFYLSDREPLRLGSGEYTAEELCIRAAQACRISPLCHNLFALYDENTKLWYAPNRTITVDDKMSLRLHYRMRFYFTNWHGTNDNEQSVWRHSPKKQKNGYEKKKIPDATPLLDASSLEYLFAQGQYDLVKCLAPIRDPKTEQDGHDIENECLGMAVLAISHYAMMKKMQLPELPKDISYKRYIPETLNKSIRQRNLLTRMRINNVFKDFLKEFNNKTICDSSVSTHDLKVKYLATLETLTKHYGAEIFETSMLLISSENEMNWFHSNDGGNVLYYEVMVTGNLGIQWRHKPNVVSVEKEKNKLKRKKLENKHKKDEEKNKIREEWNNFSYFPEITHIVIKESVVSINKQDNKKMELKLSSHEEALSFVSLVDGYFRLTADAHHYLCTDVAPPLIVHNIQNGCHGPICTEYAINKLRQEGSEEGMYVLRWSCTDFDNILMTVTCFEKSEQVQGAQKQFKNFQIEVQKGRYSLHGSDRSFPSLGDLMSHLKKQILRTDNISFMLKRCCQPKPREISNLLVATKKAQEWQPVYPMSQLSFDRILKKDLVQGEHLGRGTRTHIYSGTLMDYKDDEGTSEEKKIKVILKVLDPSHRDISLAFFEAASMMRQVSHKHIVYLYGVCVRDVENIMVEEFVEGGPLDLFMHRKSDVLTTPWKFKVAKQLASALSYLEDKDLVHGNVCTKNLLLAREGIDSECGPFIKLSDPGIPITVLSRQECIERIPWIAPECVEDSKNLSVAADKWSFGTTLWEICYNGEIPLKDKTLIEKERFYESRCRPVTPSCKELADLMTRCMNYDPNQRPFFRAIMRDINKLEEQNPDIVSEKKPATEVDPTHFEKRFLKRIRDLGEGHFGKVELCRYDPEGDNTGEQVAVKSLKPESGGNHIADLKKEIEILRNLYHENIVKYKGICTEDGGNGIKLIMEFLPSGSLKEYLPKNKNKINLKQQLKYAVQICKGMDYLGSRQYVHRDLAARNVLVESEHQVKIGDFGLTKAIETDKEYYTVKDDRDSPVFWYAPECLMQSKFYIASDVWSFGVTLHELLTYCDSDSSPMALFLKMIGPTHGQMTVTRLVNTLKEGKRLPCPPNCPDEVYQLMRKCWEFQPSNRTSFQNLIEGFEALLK

SMILES	IC50
CCCn1ccc2c(-c3ccc(NS(=O)(=O)CC)c(F)c3)cc(NC(=O)C3CC3)nc21 [Example 61, N-(4-(4-(ethylsulfonamido)-3-fluorophenyl)-1-propyl-1H-pyrrolo[2,3-b]pyridin-6-yl)cyclopropanecarboxamide]	> 200 nM
CCS(=O)(=O)Nc1ccc(-c2cc(NC(=O)C3CC3)nc3c2ccn3CC#N)cc1F [Example 62, N-(1-(cyanomethyl)-4-(4-(ethylsulfonamido)-3-fluorophenyl)-1H-pyrrolo[2,3-b]pyridin-6-yl)cyclopropanecarboxamide]	> 200 nM
CCCS(=O)(=O)Nc1ccc(-c2cc(NC(=O)C3CC3)nc3[nH]ccc23)cc1Cl [Example 63, N-(4-(3-chloro-4-(propylsulfonamido)phenyl)-1H-pyrrolo[2,3-b]pyridin-6-yl)cyclopropanecarboxamide]	20 to 200 nM
CCS(=O)(=O)Nc1ccc(-c2cc(NC(=O)C3CC3)nc3[nH]ccc23)cc1C [Example 64, N-(4-(4-(ethylsulfonamido)-3-methylphenyl)-1H-pyrrolo[2,3-b]pyridin-6-yl)cyclopropanecarboxamide]	< 20 nM
CCCS(=O)(=O)Nc1ccc(-c2cc(NC(=O)C3CC3)nc3[nH]ccc23)cc1C [Example 65, N-(4-(3-methyl-4-(propylsulfonamido)phenyl)-1H-pyrrolo[2,3-b]pyridin-6-yl)cyclopropanecarboxamide]	< 20 nM
CCCS(=O)(=O)Nc1ccc(-c2cc(NC(=O)C3CC3)nc3[nH]ccc23)cc1F [Example 66, N-(4-(3-fluoro-4-(propylsulfonamido)phenyl)-1H-pyrrolo[2,3-b]pyridin-6-yl)cyclopropanecarboxamide]	< 20 nM
CCCCS(=O)(=O)Nc1ccc(-c2cc(NC(=O)C3CC3)nc3[nH]ccc23)cc1F [Example 67, N-(4-(4-(butylsulfonamido)-3-fluorophenyl)-1H-pyrrolo[2,3-b]pyridin-6-yl)cyclopropanecarboxamide]	< 20 nM
O=C(Nc1cc(-c2ccc(NS(=O)(=O)C3CCCCC3)c(F)c2)c2cc[nH]c2n1)C1CC1 [Example 68, N-(4-(4-(cyclohexanesulfonamido)-3-fluorophenyl)-1H-pyrrolo[2,3-b]pyridin-6-yl)cyclopropanecarboxamide]	< 20 nM
O=C(Nc1cc(-c2ccc(NS(=O)(=O)C3CC3)c(F)c2)c2cc[nH]c2n1)C1CC1 [Example 69, N-(4-(4-(cyclopropanesulfonamido)-3-fluorophenyl)-1H-pyrrolo[2,3-b]pyridin-6-yl)cyclopropanecarboxamide]	< 20 nM
O=C(Nc1cc(-c2ccc(NS(=O)(=O)CC3CCCCC3)c(F)c2)c2cc[nH]c2n1)C1CC1 [Example 70, N-(4-(4-((cyclohexylmethyl)sulfonamido)-3-fluorophenyl)-1H-pyrrolo[2,3-b]pyridin-6-yl)cyclopropanecarboxamide]	20 to 200 nM
C=CCS(=O)(=O)Nc1ccc(-c2cc(NC(=O)C3CC3)nc3[nH]ccc23)cc1F [Example 71, N-(4-(4-(allylsulfonamido)-3-fluorophenyl)-1H-pyrrolo[2,3-b]pyridin-6-yl)cyclopropanecarboxamide]	< 20 nM
O=C(Nc1cc(-c2ccc(NS(=O)(=O)CC3CCOC3)c(F)c2)c2cc[nH]c2n1)C1CC1 (stereo not shown) [Example 72, N-(4-(3-fluoro-4-(((tetrahydrofuran-3-yl)methyl)sulfonamido)phenyl)-1H-pyrrolo[2,3-b]pyridin-6-yl)cyclopropanecarboxamide]	< 20 nM
O=C(Nc1cc(-c2ccc(NS(=O)(=O)CC3CCOCC3)c(F)c2)c2cc[nH]c2n1)C1CC1 [Example 73, N-(4-(3-fluoro-4-(((tetrahydro-2H-pyran-4-yl)methyl)sulfonamido)phenyl)-1H-pyrrolo[2,3-b]pyridin-6-yl)cyclopropanecarboxamide]	< 20 nM
CCS(=O)(=O)Nc1ccc(-c2cc(NC(=O)C3CC3)nc3[nH]c(C)cc23)cc1 [Example 74, N-(4-(4-(ethylsulfonamido)phenyl)-2-methyl-1H-pyrrolo[2,3-b]pyridin-6-yl)cyclopropanecarboxamide]	> 200 nM
CC(C)CS(=O)(=O)Nc1ccc(-c2cc(NC(=O)C3CC3)nc3[nH]ccc23)cc1F [Example 75, N-(4-(3-fluoro-4-((2-methylpropyl)sulfonamido)phenyl)-1H-pyrrolo[2,3-b]pyridin-6-yl)cyclopropanecarboxamide]	< 20 nM
O=C(Nc1cc(-c2ccc(NS(=O)(=O)CCCF)c(F)c2)c2cc[nH]c2n1)C1CC1 [Example 76, N-(4-(3-fluoro-4-((3-fluoropropyl)sulfonamido)phenyl)-1H-pyrrolo[2,3-b]pyridin-6-yl)cyclopropanecarboxamide]	< 20 nM

SMILES	IC50
N#CCCCS(=O)(=O)Nc1ccc(-c2cc(NC(=O)C3CC3)nc3[nH]ccc23)cc1F [Example 77, N-(4-(4-((3-cyanopropyl)sulfonamido)-3-fluorophenyl)-1H-pyrrolo[2,3-b]pyridin-6-yl)cyclopropanecarboxamide]	< 20 nM
O=C(Nc1cc(-c2ccc(NS(=O)(=O)C3CCC3)c(F)c2)c2cc[nH]c2n1)C1CC1 [Example 78, N-(4-(4-(cyclobutanesulfonamido)-3-fluorophenyl)-1H-pyrrolo[2,3-b]pyridin-6-yl)cyclopropanecarboxamide]	< 20 nM
CC(C)(C)CS(=O)(=O)Nc1ccc(-c2cc(NC(=O)C3CC3)nc3[nH]ccc23)cc1F [Example 79, N-(4-(4-((2,2-dimethylpropyl)sulfonamido)-3-fluorophenyl)-1H-pyrrolo[2,3-b]pyridin-6-yl)cyclopropanecarboxamide]	< 20 nM
O=C(Nc1cc(-c2ccc(NS(=O)(=O)CC3CC3)c(F)c2)c2cc[nH]c2n1)C1CC1 [Example 80, N-(4-(4-((cyclopropylmethyl)sulfonamido)-3-fluorophenyl)-1H-pyrrolo[2,3-b]pyridin-6-yl)cyclopropanecarboxamide]	< 20 nM
CCS(=O)(=O)Nc1c(F)cc(-c2cc(NC(=O)C3CC3)nc3[nH]ccc23)cc1F [Example 81, N-(4-(4-(ethylsulfonamido)-3,5-difluorophenyl)-1H-pyrrolo[2,3-b]pyridin-6-yl)cyclopropanecarboxamide]	20 to 200 nM
CCCS(=O)(=O)Nc1c(F)cc(-c2cc(NC(=O)C3CC3)nc3[nH]ccc23)cc1F [Example 82, N-(4-(3,5-difluoro-4-(propylsulfonamido)phenyl)-1H-pyrrolo[2,3-b]pyridin-6-yl)cyclopropanecarboxamide]	20 to 200 nM
CCS(=O)(=O)Nc1cc(F)c(-c2cc(NC(=O)C3CC3)nc3[nH]ccc23)cc1F [Example 83, N-(4-(4-(ethylsulfonamido)-2,5-difluorophenyl)-1H-pyrrolo[2,3-b]pyridin-6-yl)cyclopropanecarboxamide]	< 20 nM
CCCS(=O)(=O)Nc1cc(F)c(-c2cc(NC(=O)C3CC3)nc3[nH]ccc23)cc1F [Example 84, N-(4-(2,5-difluoro-4-(propylsulfonamido)phenyl)-1H-pyrrolo[2,3-b]pyridin-6-yl)cyclopropanecarboxamide]	< 20 nM
N#CC1(CS(=O)(=O)Nc2ccc(-c3cc(NC(=O)C4CC4)nc4[nH]ccc34)cc2F)CC1 [Example 85, N-(4-(4-(((1-cyanocyclopropyl)methyl)sulfonamido)-3-fluorophenyl)-1H-pyrrolo[2,3-b]pyridin-6-yl)cyclopropanecarboxamide]	< 20 nM
N#CCC1(CS(=O)(=O)Nc2ccc(-c3cc(NC(=O)C4CC4)nc4[nH]ccc34)cc2F)CC1 [Example 86, N-(4-(4-(((1-(cyanomethyl)cyclopropyl)methyl)sulfonamido)-3-fluorophenyl)-1H-pyrrolo[2,3-b]pyridin-6-yl)cyclopropanecarboxamide]	< 20 nM
CC(C)(C#N)CCS(=O)(=O)Nc1ccc(-c2cc(NC(=O)C3CC3)nc3[nH]ccc23)cc1F [Example 87, N-(4-(4-((3-cyano-3-methylbutyl)sulfonamido)-3-fluorophenyl)-1H-pyrrolo[2,3-b]pyridin-6-yl)cyclopropanecarboxamide]	20 to 200 nM
N#CC1(CS(=O)(=O)Nc2ccc(-c3cc(NC(=O)C4CC4)nc4[nH]ccc34)cc2)CC1 [Example 88, N-(4-(4-(((1-cyanocyclopropyl)methyl)sulfonamido)phenyl)-1H-pyrrolo[2,3-b]pyridin-6-yl)cyclopropanecarboxamide]	< 20 nM
N#CCC1(CS(=O)(=O)Nc2ccc(-c3cc(NC(=O)C4CC4)nc4[nH]ccc34)cc2)CC1 [Example 89, N-(4-(4-(((1-(cyanomethyl)cyclopropyl)methyl)sulfonamido)phenyl)-1H-pyrrolo[2,3-b]pyridin-6-yl)cyclopropanecarboxamide]	< 20 nM
Cc1cc(NS(=O)(=O)C2CC2)ccc1-c1cc(NC(=O)C2CC2)nc2[nH]ccc12 [Example 90, N-(4-(4-(cyclopropanesulfonamido)-2-methylphenyl)-1H-pyrrolo[2,3-b]pyridin-6-yl)cyclopropanecarboxamide]	20 to 200 nM
Cc1cc(NS(=O)(=O)C2CCC2)ccc1-c1cc(NC(=O)C2CC2)nc2[nH]ccc12 [Example 91, N-(4-(4-(cyclobutanesulfonamido)-2-methylphenyl)-1H-pyrrolo[2,3-b]pyridin-6-yl)cyclopropanecarboxamide]	20 to 200 nM
